Measured values: PubChem BioAssay AID1963864 (Molecular Pharmacology Branch, DTP, NCI, 2024)

System: KRAS PDC multicell spheroid viability
Test: Anticancer human tumor 521955-158-R6-J3-PDC patient-derived pancreatic carcinoma cell line growth inhibition [KRAS2]
Settings: for IC50: curve of first compound; for viability, T/C: stronger effect = lower value
Method in brief: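 Combination screen of spheroid viability in tumor-cell co-cultures with endothelial (HUVEC) and mesenchymal stem cell stroma. Each agent was tested in half-log dilutions, topping at clinical Cmax or at 10 microM without a known Cmax.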
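Also: drug exposure lasted seven days.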
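For viability, T/C in this document: 100% = DMSO vehicle wells and lower means fewer viable cells.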

`CC1COCCN1c1cc(-c2ccnn2C)c2ccnc(-c3ccn[nH]3)c2n1` (stereo not given) + C=CC(=O)N1CCN(c2nc(OCC3CCCN3C)nc3c2CCN(c2cccc4cccc(C)c24)C3)CC1CC#N was tested, and the IC50 (second compound 0.0316 µM) was greater than 3.16 µM, the IC50 (second compound 0.1 µM) was greater than 3.16 µM and the IC50 (second compound 0.316 µM) was greater than 3.16 µM. The IC50 (second compound 1 µM) was greater than 3.16 µM, the IC50 (second compound 3.16 µM) was 0.0121 µM and the viability, T/C (second compound 0.0316 µM, first compound 0.01 µM) was 88%. For the same molecule, the viability, T/C (second compound 0.0316 µM, first compound 0.0316 µM) was 90.2%, the viability, T/C (second compound 0.0316 µM, first compound 0.1 µM) was 89.7% and the viability, T/C (second compound 0.0316 µM, first compound 0.316 µM) was 79.8%. The viability, T/C (second compound 0.0316 µM, first compound 1 µM) was 78.8%, the viability, T/C (second compound 0.0316 µM, first compound 3.16 µM) was 92.9% and the viability, T/C (second compound 0.1 µM, first compound 0.01 µM) was 92.6%. It also gave a viability, T/C (second compound 0.1 µM, first compound 0.0316 µM) of 95.3%, a viability, T/C (second compound 0.1 µM, first compound 0.1 µM) of 77% and a viability, T/C (second compound 0.1 µM, first compound 0.316 µM) of 71.4%. It also gave a viability, T/C (second compound 0.1 µM, first compound 1 µM) of 75%, a viability, T/C (second compound 0.1 µM, first compound 3.16 µM) of 94.5% and a viability, T/C (second compound 0.316 µM, first compound 0.01 µM) of 89.5%. For the same molecule, the viability, T/C (second compound 0.316 µM, first compound 0.0316 µM) was 85.1%, the viability, T/C (second compound 0.316 µM, first compound 0.1 µM) was 73.1% and the viability, T/C (second compound 0.316 µM, first compound 0.316 µM) was 74.7%. The viability, T/C (second compound 0.316 µM, first compound 1 µM) was 73.6%, the viability, T/C (second compound 0.316 µM, first compound 3.16 µM) was 76.8% and the viability, T/C (second compound 1 µM, first compound 0.01 µM) was 71.7%. It also gave a viability, T/C (second compound 1 µM, first compound 0.0316 µM) of 79%, a viability, T/C (second compound 1 µM, first compound 0.1 µM) of 68% and a viability, T/C (second compound 1 µM, first compound 0.316 µM) of 69.4%. It also gave a viability, T/C (second compound 1 µM, first compound 1 µM) of 59.9%, a viability, T/C (second compound 1 µM, first compound 3.16 µM) of 71.7% and a viability, T/C (second compound 3.16 µM, first compound 0.01 µM) of 52.2%. The viability, T/C (second compound 3.16 µM, first compound 0.0316 µM) was 39.7%, the viability, T/C (second compound 3.16 µM, first compound 0.1 µM) was 31.9% and the viability, T/C (second compound 3.16 µM, first compound 0.316 µM) was 36.5%. For the same molecule, the viability, T/C (second compound 3.16 µM, first compound 1 µM) was 27.6% and the viability, T/C (second compound 3.16 µM, first compound 3.16 µM) was 45.8%.
